The source made the active and inactive calls. The rule behind the calls is not given here.
Key:
MCF7 [1] = assay: Anticancer activity against human MCF7 cells assessed as reduction in cell viability at 14.65 uM preincubated with ML-193 for 1 hrs followed by compound addition and measured after 48 hrs by SRB assay; type: functional, cell-based
T47D = assay: Anticancer activity against human T47D cells; type: functional, cell-based
LNCaP = assay: Anticancer activity against human LNCaP cells; type: functional, cell-based
MCF7 [2] = assay: Cytotoxicity against human MCF7 cells assessed as inhibition of cell growth incubated for 48 hrs by SRB assay; type: functional, cell-based; details: MCF7, 48 h
EL4 = assay: Anticancer activity against mouse EL4 cells; type: functional, cell-based
MCF7 [3] = assay: Cytotoxicity against human MCF7 cells assessed as inhibition of cell growth at 20 uM incubated for 48 hrs by SRB assay relative to control; type: functional
MDA-MB-231 = assay: Anticancer activity against human MDA-MB-231 cells; type: functional, cell-based
[4] = Metabolic stability in human liver microsomes assessed as parent compound remaining measured after 30 mins; type: ADME, Microsome; details: read-out: Stability
A549 = assay: Anticancer activity against human A549 cells; type: functional, cell-based
Caco-2 = assay: Anticancer activity against human Caco-2 cells; type: functional, cell-based
MCF7 [5] = assay: Induction of apoptosis in human MCF7 cells assessed as late apoptotic cells at 14.65 uM incubated for 24 hrs by Annexin V-FITC/PI staining based flow cytometric analysis (reference value: 4.85 %); type: functional
MCF7 [6] = assay: Induction of apoptosis in human MCF7 cells assessed as necrotic cells at 14.65 uM incubated for 24 hrs by Annexin V-FITC/PI staining based flow cytometric analysis (reference value: 4.02 %); type: functional
HCT-116 [7] = assay: Cytotoxicity against human HCT-116 cells assessed as inhibition of cell growth incubated for 48 hrs by SRB assay; type: functional, cell-based; details: HCT-116, 48 h
MCF7 [8] = assay: Anticancer activity against human MCF7 cells assessed as reduction in cell viability at 14.65 uM preincubated with SR144528 for 1 hrs followed by compound addition and measured after 48 hrs by SRB assay; type: functional, cell-based
MCF7 [9] = assay: Anticancer activity against human MCF7 cells assessed as reduction in cell viability at 14.65 uM incubated for 48 hrs by SRB assay relative to control; type: functional
DU-145 = assay: Anticancer activity against human DU-145 cells; type: functional, cell-based
MCF7 [10] = assay: Induction of apoptosis in human MCF7 cells assessed as early apoptotic cells at 14.65 uM incubated for 24 hrs by Annexin V-FITC/PI staining based flow cytometric analysis (reference value: 2.93 %); type: functional
MCF7 [11] = assay: Cell cycle arrest in human MCF7 cells assessed as accumulation of cells at G1 phase at 14.65 uM incubated for 24 hrs by PI staining based flow cytometric analysis (reference value: 63.9 %); type: functional
[12] = Selectivity index, ratio of IC50 for HEK293 cells to IC50 for human HCT-116 cells; type: toxicity; details: HEK293 cells versus HCT-116 cells, read-out: Ratio IC50
HCT-116 [13] = assay: Cytotoxicity against human HCT-116 cells assessed as inhibition of cell growth at 20 uM incubated for 48 hrs by SRB assay relative to control; type: functional
RBL-2H3 = assay: Anticancer activity against rat RBL-2H3 cells; type: functional, cell-based
[14] = Anticancer activity against mouse Thymocyte; type: toxicity, cell-based; details: thymocytes
HL-60 = assay: Anticancer activity against human HL-60 cells; type: functional, cell-based
MCF7 [15] = assay: Induction of ROS production in human MCF7 cells assessed as DCFDA intensity at 14.6 uM incubated for 24 hrs by flow cytometric analysis (reference value: 0.95 %); type: functional
MCF7 [16] = assay: Anticancer activity against human MCF7 cells assessed as reduction in cell viability at 14.65 uM preincubated with GW9662 for 1 hrs followed by compound addition and measured after 48 hrs by SRB assay; type: functional, cell-based
MCF7 [17] = assay: Cell cycle arrest in human MCF7 cells assessed as accumulation of cells at S phase at 14.65 uM incubated for 24 hrs by PI staining based flow cytometric analysis (reference value: 22.93 %); type: functional
MCF7 [18] = assay: Anticancer activity against human MCF7 cells; type: functional, cell-based
SF-126 = assay: Anticancer activity against human SF-126 cells; type: functional, cell-based
MCF7 [19] = assay: Induction of mitochondrial membrane loss in human MCF7 cells assessed as fold change at 14.6 uM incubated for 24 hrs by Mitotracker dye based flow cytometric analysis relative to control; type: functional
MCF7 [20] = assay: Anticancer activity against human MCF7 cells assessed as reduction in cell viability at 14.65 uM preincubated with capsazepine for 1 hrs followed by compound addition and measured after 48 hrs by SRB assay; type: functional, cell-based
[21] = Anticancer activity against KiMol cells (unknown origin); type: functional, cell-based; details: KiMol cell
AGS = assay: Anticancer activity against human AGS cells; type: functional, cell-based
MCF7 [22] = assay: Inhibition of colony formation in human MCF7 cells assessed as reduction in number of colonies at subtoxic doses measured after 48 hrs by crystal violet staining based analysis; type: functional, cell-based
[23] = Anticancer activity against human MZC cells; type: functional, cell-based
T98 = assay: Anticancer activity against human T98 cells; type: functional, cell-based
MCF7 [24] = assay: Cell cycle arrest in human MCF7 cells assessed as accumulation of cells at G2/M phase at 14.65 uM incubated for 24 hrs by PI staining based flow cytometric analysis (reference value: 13.7 %); type: functional
CYP450 = CYP450 (Homo sapiens, UniProt P04798+P05177+P05181+P08684+P10632+P10635+P11509+P11712+P13584+P20813+P20815+P20853+P24462+P24903+P33260+P33261+P51589+P78329+P98187+Q02928+Q08477+Q16678+Q16696+Q5TCH4+Q6VVX0+Q7Z449+Q8TAV3+Q96SQ9+Q9HB55); assay: Inhibition of CYP450 in human liver microsomes at <1 uM by cocktail-mixture based assay relative to control; type: ADME, Microsome; parameters: dose or concentration left out as unconfirmed; details: probe cocktail mixture
MCF7 [25] = assay: Induction of apoptosis in human MCF7 cells assessed as viable cells at 14.65 uM incubated for 24 hrs by Annexin V-FITC/PI staining based flow cytometric analysis (reference value: 88.20 %); type: functional; details: read-out: Activity
SW480 = assay: Anticancer activity against human SW480 cells; type: functional, cell-based
MCF7 [26] = assay: Anticancer activity against human MCF7 cells assessed as reduction in cell viability at 14.65 uM preincubated with LY320135 for 1 hrs followed by compound addition and measured after 48 hrs by SRB assay; type: functional, cell-based
[27] = Selectivity index, ratio of IC50 for HEK293 cells to IC50 for human MCF7 cells; type: toxicity; details: HEK293 cells versus MCF7 cells, read-out: Ratio IC50
C6 = assay: Anticancer activity against rat C6 cells; type: functional, cell-based
NCI-H460 = assay: Anticancer activity against human NCI-H460 cells; type: functional, cell-based
[28] = Anticancer activity against mouse GL261 cells; type: functional, cell-based
[29] = Cytotoxicity against human HEK293 cells assessed as inhibition of cell growth incubated for 48 hrs by SRB assay; type: toxicity, cell-based
CCRF-CEM = assay: Anticancer activity against human CEM cells; type: functional, cell-based

C=C(C)[C@@H]1CCC(C)=C[C@H]1c1c(O)cc(CCCCC)cc1O [CANNABIDIOL]
Activity (MCF7 [1]): Active
IC50 (T47D): 1.3 µM
IC50 (LNCaP): 5.06 µM
IC50 (MCF7 [2]): 14.6 µM
IC50 (EL4): 7.01 µM
inhibition at 20 µM (MCF7 [3]): 59.1%
IC50 (MDA-MB-231): 1.3 µM
remaining at 0.5 h [4]: 17%
IC50 (A549): 2.8 µM
IC50 (Caco-2): 5.95 µM
Activity (MCF7 [5]): 10.14%
Activity (MCF7 [6]): 2.38%
IC50 (HCT-116 [7]): 9.8 µM
Activity (MCF7 [8]): Active
Activity (MCF7 [9]): 52.46%
IC50 (DU-145): 5.06 µM
Activity (MCF7 [10]): 6.33%
Activity (MCF7 [11]): 75.12%
selectivity ratio [12]: 9.7
inhibition at 20 µM (HCT-116 [13]): 77.3%
IC50 (RBL-2H3): 6.3 µM
IC50 [14]: 7.01 µM
IC50 (HL-60): 6.3 µM
Activity (MCF7 [15]): 15.11%
Activity (MCF7 [16]): Active
Activity (MCF7 [17]): 6.84%
IC50 (MCF7 [18]): 1.3 µM
IC50 (SF-126): 1.2 µM
fold change (FC) (MCF7 [19]): 3.4
Activity (MCF7 [20]): Active
IC50 [21]: 6 µM
IC50 (AGS): 7.5 µM
inhibition (MCF7 [22]): Active
IC50 [23]: 1.2 µM
IC50 (T98): 1.2 µM
Activity (MCF7 [24]): 18.04%
inhibition (CYP450): > 50%
viability at 14.65 µM (MCF7 [25]): 81.1%
IC50 (SW480): 5.95 µM
Activity (MCF7 [26]): Active
selectivity ratio [27]: 6.5
IC50 (C6): 1.2 µM
IC50 (NCI-H460): 2.8 µM
IC50 [28]: 1.2 µM
IC50 at 48 h [29]: 95.2 µM
IC50 (CCRF-CEM): 6.3 µM

From ChEMBL document CHEMBL6071200, “Discovery of Ring-Annulated Analogues of Cannabidiol as Potential Anticancer Agents: Synthesis and Biological Evaluation” (ACS Med Chem Lett, 2024)
